Where a name gives a salt, the structure may show the parent alone. Read-outs that look alike come from different tables or passages of the source.
How the values were obtained:
HCT-116 cell line = experiment: Inhibition of cell growth, tetrazolium salt (MTT) assay; format: cell-based; details: for IC50: Homo sapiens, HCT-116, 120 h, MTT, three to five days, read-out: HCT-116 IC50; for HCT-116 % Inhibition at 0.25 μM: 0.25 μM compound
In short: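 McCoy's 5A cultures; 4 h pre-incubation; compound dilutions in 0.5% v/v DMSO; 3–5 d, 37° C, 5% CO2; MTT 0.2 mg/mL final, 4 h; formazan dissolved in DMSO, A540; vs 0.5% DMSO vehicle.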

CDK2/Cyclin A = CDK2/Cyclin A (Homo sapiens, UniProt P24941); experiment: Inhibition of CDK2/Cyclin A Retinoblastoma Kinase Activity; format: biochemical; details: for Ki: apparent Ki, CDK2/proteolyzed cyclin A, Rb fragment substrate, 25 μM ATP; for CDK2 % Inhibition At 0.03 μM: Table 2
In short: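 Baculovirus-expressed CDK2 complexed with proteolyzed cyclin A (10 or 19 nM), Rb fragment substrate, 25 μM [32P/33P]ATP, HEPES pH 7.4, 30 °C for 60 or 75 min under initial-rate conditions. Filter capture and phosphorimager readout; apparent Ki fitted to competitive or tight-binding competitive inhibition.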

[1] = molecular target: human CDK4 and genetically truncated (1-264) cyclin D3 (Homo sapiens, UniProt P11802); experiment: Inhibition of CDK4/Cyclin D Retinoblastoma Kinase Activity; format: biochemical; details: for Ki: apparent Ki, CDK4/truncated cyclin D3, Rb fragment substrate, 25 μM ATP
human CDK4 and genetically truncated (1-264) cyclin D3, sequence (P11802 whole entry, the tested form may be a part): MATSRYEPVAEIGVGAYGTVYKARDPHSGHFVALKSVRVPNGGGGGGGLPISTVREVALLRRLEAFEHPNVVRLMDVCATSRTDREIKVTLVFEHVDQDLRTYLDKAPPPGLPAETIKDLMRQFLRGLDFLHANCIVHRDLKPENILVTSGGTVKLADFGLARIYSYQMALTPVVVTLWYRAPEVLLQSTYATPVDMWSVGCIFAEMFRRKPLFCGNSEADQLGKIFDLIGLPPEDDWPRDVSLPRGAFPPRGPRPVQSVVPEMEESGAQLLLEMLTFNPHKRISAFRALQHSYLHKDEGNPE
human CDK4 and genetically truncated (1-264) cyclin D3, sequence (P30281 1-264 partner): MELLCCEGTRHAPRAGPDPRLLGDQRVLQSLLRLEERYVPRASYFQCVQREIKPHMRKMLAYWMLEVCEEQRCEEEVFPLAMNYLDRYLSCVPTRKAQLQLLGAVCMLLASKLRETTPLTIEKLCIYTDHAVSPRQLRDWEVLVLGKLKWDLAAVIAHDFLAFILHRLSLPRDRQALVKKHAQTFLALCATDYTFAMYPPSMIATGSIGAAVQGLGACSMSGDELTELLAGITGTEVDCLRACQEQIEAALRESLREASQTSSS
In short: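 Human CDK4/truncated cyclin D3 (1-264) complex from baculovirus-infected insect cells, 5 nM, phosphorylating Rb fragment (residues 386-928, His-tagged) with 25 μM [32/33P]ATP in HEPES pH 7.4, MgCl2, 2% DMSO at 30° C. for 20 min (60 min for tight binders). Filter-captured radioactivity by phosphorimager; apparent Ki from competitive or tight-binding fits.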

[2] = 0.1 μM compound, HCT-116, Table 4

Nc1nc(NC2CCN(S(=O)(=O)c3ccc(-c4ccncc4)nc3)CC2)sc1C(=O)c1c(F)cccc1F [Example I7, 1-{4-Amino-2-[1-([2,4′]bipyridinyl-5-sulfonyl)-piperidinin-4-ylamino]-thiazol-5-yl}-1-(2,6-difluoro-phenyl)-methanone] showed an IC50 (HCT-116 cell line; first HCT-116 column (c4)) of 1300 nM, an IC50 (HCT-116 cell line; second HCT-116 column (c5)) of 5000 nM and a Ki (CDK2/Cyclin A) of less than 1 nM. It also gave a Ki [1] of 0.38 nM.

CN1CCC[C@H](COc2ccc(S(=O)(=O)N3CCC(Nc4nc(N)c(C(=O)c5c(F)cccc5F)s4)CC3)cn2)C1 [Example H11, 1-(4-Amino-2-{1-[6-(1-methyl-piperidin-3S-ylmethoxy)-pyridine-3-sulfonyl]-piperidin-4-ylamino}-thiazol-5-yl)-1-(2,6-difluoro-phenyl)-methanone Dihydrochloride] was tested, and the IC50 (HCT-116 cell line; first HCT-116 column (c4)) was 42 nM, the IC50 (HCT-116 cell line; second HCT-116 column (c5)) was 130 nM and the Ki (CDK2/Cyclin A) was 6.9 nM. For the same compound, the Ki [1] was 0.28 nM.

Compound CC1(C)CN(c2ccc(S(=O)(=O)N3CCC(Nc4nc(N)c(C(=O)c5c(F)cccc5F)s4)CC3)cc2)CCN1 [Example G31, 1-(4-Amino-2-{1-[4-(3,3-dimethyl-piperazin-1-yl)-benzenesulfonyl]-piperidin-4-ylamino}-thiazol-5-yl)-1-(2,6-difluoro-phenyl)-methanone] has an IC50 (HCT-116 cell line; first HCT-116 column (c4)) of 110 nM, an IC50 (HCT-116 cell line; second HCT-116 column (c5)) of 1500 nM and a Ki (CDK2/Cyclin A) of 0.82 nM. The Ki [1] was 0.53 nM.

Cc1ccc(C)c(C(=O)N2CCC(Nc3nc(N)c(C(=O)c4c(F)cccc4F)s3)CC2)c1 [Example R128] was tested, and the “HCT-116 % Inhibition at 0.1 μM” value (HCT-116 cell line; HCT-116 cells, at 0.1 μM) was 0%, the “HCT-116 5 Inhibition at 0.25 μM” value (HCT-116 cell line; HCT-116 cells) was 56 and the “CDK2 % Inhibition at 0.03 μM” value (CDK2/Cyclin A; at 0.03 μM) was 14%. The “CDK4 % Inhibition at 0.03 μM” value ([1]; at 0.03 μM) was 7%.

In the case of CC(C)=CC(=O)N1CCC(Nc2nc(N)c(C(=O)c3c(F)cccc3F)s2)CC1 [Example Q44], the “HCT-116 % Inhibition at 0.1 μM” value (HCT-116 cell line; [2]) is reported as 0%, the “HCT-116 % Inhibition at 0.25 μM” value (HCT-116 cell line; HCT-116, Table 4) is reported as 30% and the “CDK2 % Inhibition at 0.03 μM” value (CDK2/Cyclin A; 0.03 μM compound, Table 4) is reported as −19%. For the same compound, the “CDK4 % Inhibition at 0.03 μM” value ([1]; 0.03 μM compound, Table 4) was 17%.

With Nc1nc(NC2CCN(S(=O)(=O)c3cc(Cl)sc3Cl)CC2)sc1C(=O)c1c(F)cccc1F [Example P35] the “HCT-116 % Inhibition at 0.1 μM” value (HCT-116 cell line; 0.1 μM compound, HCT-116, Table 3) was 1%, the “HCT-116 % Inhibition at 0.25 μM” value (HCT-116 cell line; HCT-116, Table 3) was 22% and the “CDK2 % Inhibition at 0.03 μM” value (CDK2/Cyclin A; 0.03 μM compound, Table 3) was 37%. The “CDK4 % Inhibition at 0.03 μM” value ([1]; 0.03 μM compound, Table 3) was 47%.

In the case of COc1cc(NC(=O)N2CCC(Nc3nc(N)c(C(=O)c4c(F)cccc4F)s3)CC2)cc(OC)c1 [Example O45], the “HCT-116 % Inhibition at 0.25 μM” value (HCT-116 cell line; HCT-116, Table 2) is reported as 32%, the “CDK2 % Inhibition At 0.03 μM” value (CDK2/Cyclin A; 0.03 μM compound) is reported as 35% and the “CDK4 % Inhibition at 0.03 μM” value ([1]; 0.03 μM compound, Table 2) is reported as 17%.

With N#Cc1ccc(S(=O)(=O)N2CCCC(Nc3nc(N)c(C(=O)c4c(F)cccc4F)s3)C2)cc1 (stereo not drawn) [Example F35, 4-{3-[4-Amino-5-(2,6-difluoro-benzoyl)-thiazol-2-ylamino]-piperidine-1-sulfonyl}-benzonitrile] the IC50 (HCT-116 cell line; first HCT-116 column (c4)) was 1600 nM, the IC50 (HCT-116 cell line; second HCT-116 column (c5)) was 2600 nM and the Ki (CDK2/Cyclin A) was 76 nM. For the same compound, the Ki [1] was 340 nM.

With Nc1nc(NC2CCN(C(=O)NCCc3ccccc3)CC2)sc1C(=O)c1c(F)cccc1F [Example O57] the “HCT-116 % Inhibition at 0.25 μM” value (HCT-116 cell line; HCT-116, Table 2) was 41%, the “CDK2 % Inhibition At 0.03 μM” value (CDK2/Cyclin A; 0.03 μM compound) was 28% and the “CDK4 % Inhibition at 0.03 μM” value ([1]; 0.03 μM compound, Table 2) was −2%.

With Nc1nc(NC2CCN(C(=O)c3ccccc3Br)CC2)sc1C(=O)c1c(F)cccc1F [Example Q10] the “HCT-116 % Inhibition at 0.1 μM” value (HCT-116 cell line; [2]) was 1%, the “HCT-116 % Inhibition at 0.25 μM” value (HCT-116 cell line; HCT-116, Table 4) was 42% and the “CDK2 % Inhibition at 0.03 μM” value (CDK2/Cyclin A; 0.03 μM compound, Table 4) was 23%. For the same compound, the “CDK4 % Inhibition at 0.03 μM” value ([1]; 0.03 μM compound, Table 4) was 57%.

In the case of CC(=O)Nc1ccc(C(=O)N2CCC(Nc3nc(N)c(C(=O)c4c(F)cccc4F)s3)CC2)cc1 [Example R146], the “HCT-116 % Inhibition at 0.1 μM” value (HCT-116 cell line; HCT-116 cells, at 0.1 μM) is reported as 0%, the “HCT-116 5 Inhibition at 0.25 μM” value (HCT-116 cell line; HCT-116 cells) is reported as 10 and the “CDK2 % Inhibition at 0.03 μM” value (CDK2/Cyclin A; at 0.03 μM) is reported as 74%. The “CDK4 % Inhibition at 0.03 μM” value ([1]; at 0.03 μM) was 83%.

For Nc1nc(NC2CCN(C(=O)c3cccnc3Sc3ccccc3)CC2)sc1C(=O)c1c(F)cccc1F [Example R41], the “HCT-116 % Inhibition at 0.1 μM” value (HCT-116 cell line; HCT-116 cells, at 0.1 μM) was 0%, the “HCT-116 5 Inhibition at 0.25 μM” value (HCT-116 cell line; HCT-116 cells) was 41 and the “CDK2 % Inhibition at 0.03 μM” value (CDK2/Cyclin A; at 0.03 μM) was 24%. For the same compound, the “CDK4 % Inhibition at 0.03 μM” value ([1]; at 0.03 μM) was 32%.

With N#Cc1cccc(C(=O)N2CCC(Nc3nc(N)c(C(=O)c4c(F)cccc4F)s3)CC2)c1 [Example Q77] the “HCT-116 % Inhibition at 0.1 μM” value (HCT-116 cell line; [2]) was 8%, the “HCT-116 % Inhibition at 0.25 μM” value (HCT-116 cell line; HCT-116, Table 4) was 33% and the “CDK2 % Inhibition at 0.03 μM” value (CDK2/Cyclin A; 0.03 μM compound, Table 4) was 44%. For the same compound, the “CDK4 % Inhibition at 0.03 μM” value ([1]; 0.03 μM compound, Table 4) was 72%.

COc1ccc(S(=O)(=O)N2CCC(Nc3nc(N)c(C(=O)c4c(F)cccc4F)s3)CC2)cc1OC [Example F8, 1-{4-Amino-2-[1-(3,4-dimethoxy-benzenesulfonyl)-piperidin-4-ylamino]-thiazol-5-yl}-1-(2,6-difluoro-phenyl)-methanone] was tested, and the IC50 (HCT-116 cell line; first HCT-116 column (c4)) was 160 nM, the IC50 (HCT-116 cell line; second HCT-116 column (c5)) was 290 nM and the Ki (CDK2/Cyclin A) was less than 1 nM. The Ki [1] was 3 nM.

— patent publication US20050101595A1, “N-containing cycloalkyl-substituted amino-thiazole derivatives and pharmaceutical compositions for inhibiting cell proliferation and methods for their use” (PFIZER INC., priority 2003, published 2005)
